Patent publication US11173124B2, “Oral delivery of GLP-1 peptide analogs” (MEDIMMUNE LIMITED, priority 2017, dated 2021)
Each block holds one compound with its values, some of them ahead of it. Starred links: 1 amine or outer side, 2 acyl side, 3 side chain; linkers in the order of their positions; H or OH if unused. Non-standard residues stand in square brackets, D forms with d. Residues, ends and D or L forms follow the SMILES beside them. Groups on a side chain read outwards from the residue. ξ: configuration not given here. *: point of attachment. γGlu = O=C(O)[C@H](CCC(=O)[*:2])N[*:1]; Palmitoyl = CCCCCCCCCCCCCCCC(=O)*; ξαMeF = CC(N)(Cc1ccccc1)C(=O)O; Lauroyl = CCCCCCCCCCCC(=O)*; ξαMeK = CC(N)(CCCCN)C(=O)O; ξαMeS = CC(N)(CO)C(=O)O; AEEA = NCCOCCOCC(=O)O; Aib = CC(C)(N)C(=O)O

How the values were obtained:
[1] = Third rat ID infusion study, stabilized peptides vs semaglutide (Example 6); conditions: in vivo
Procedure: The third rat ID infusion study was performed to compare bioavailability of stabilized peptides MEDI7219 (SEQ ID NO:2) and SEQ ID NO:6 with that of semaglutide, H-His-Aib-[…]AEEAc-AEEAc-γ-Glu-17-carboxyheptadecanoyl)-[…]OH (SEQ ID NO:11), (Novo Nordisk), an un-stabilized GLP-1 peptide analog, that only has Aib in its sequence for protection from circulating DPP-IV peptidases, (Table 7 and FIG. 2B).

[2] = test system: Caco-2 cells; assay: Caco-2 study, Permeability (%) of lipidated peptides (Example 3); assay type: in vitro ADME, human; conditions: 0.1 mg/mL peptide
Description: The Caco-2 cell line is a continuous cell line of heterogeneous human epithelial colorectal adenocarcinoma cells, which when cultured under specific conditions, become differentiated and polarized such that their phenotype, morphologically and functionally, resembles the enterocytes lining the small intestine. Caco-2 cells express tight junctions, microvilli, and a number of enzymes and transporters that are characteristic of such enterocytes. Caco-2 cells are most commonly used as a tight junction monolayer that provides a physical and biochemical barrier to the passage of drugs and thus serves as an in vitro model of the human small intestinal mucosa to predict the absorption of orally administered drugs. Caco-2 permeability assays were performed by Cyprotex US, LLC (MA, USA) to assess the efficacy of different permeation enhancers. Caco-2 cells were grown on Transwell filters until a transepithelial electric resistance of ˜1000 ohms/cm^2 was achieved. The cells were incubated for three hours with media containing test samples on the apical (top) side of the cell layer, and with blank media on the basolateral (lower) side of the cell layer. Media from the apical and basolateral sides was collected separately after three hours and evaluated for the amount of peptide present on each side. Table 2 gives the permeability coefficient (Papp) of the various test samples, which include the SEQ ID NO:3 GLP-1 peptide in the presence of different excipients.
A following Caco-2 study was performed to evaluate the permeability of different peptides in the presence of various permeation enhancers. Permeability (%) was calculated by dividing the cumulative amount of molecules transported with the original loading amount. Concentrations of peptides in starting sample and apical and basal solutions after incubation for pre-determined periods were analyzed by HPLC. Sodium chenodeoxycholate at 25 mg/mL effected the highest permeability of each tested peptide (Table 4).

[3] = Canine tablet site of absorption study, SEQ ID NO:6 tablets in acid-resistant capsules or IntelliCap (Example 12); assay type: in vivo; conditions: dog; for Tmax / half-life / AUC(0-t) / Cmax: in vivo; for bioavailability: plasma
Procedure: A third site of absorption study was performed to evaluate the absorption sites and tablet formulations in acid-resistant capsules in canines. The tablet manufacturing process was as follows: All ingredients were passed through a US sieve #35 (0.5 mm opening), and the resultant powder was compacted using a pellet press. Compacted material was again passed through a US sieve #35 (0.5 mm opening) to form granules. […] Tablets in this study were either placed in acid-resistant capsules (Table 18, Groups 1 and 2) or in IntelliCap® (Table 18, Groups 3 and 4).

[4] = in vivo; conditions: dog, po
Description: The following materials and methods were used for quantitative measurements of GLP-1 peptide analogs in plasma (e.g., rat or dog plasma) in the Examples below. These methods used a SCIEX 6600 TripleTOF mass spectrometer coupled with a Shimadzu ultra-high performance liquid chromatography (UHPLC). The specificity of the method was ensured by the retention time, the selected mass for Single-Reaction-Monitoring (SRM) mode, and the selected fragment mass in MS/MS (MS^2) mode. […] The analytes of interest were analyzed from plasma, a complex biological matrix. Although protein precipitation using organic solvent can reduce matrix interference, significant background still persists. The high mass accuracy offered by the TripleTOF mass spectrometers further eliminated background noise, thus enhancing signal: noise (S/N) and allowing improved quantification.
The plasma extraction procedure used the following steps: • Samples, standards, and quality controls were incubated until they reached room temperature. They were then incubated at 60° C. for 2 minutes and cooled down to room temperature, vortexed, and spun down. • 70 μL of samples, standards, or quality controls were transferred into a 1 mL 96-well plate. • In each well, 420 uL of Precipitation Solution was added. The plate was sealed and shook for 10 minutes on a plate shaker at 600 rpm. • The plate was centrifuged at 18G, 2500 RFC, 20° C. for 10 minutes. • The plate was carefully removed, and the upper clear supernatant was extracted with a 200 uL multichannel pipette into a new 96-well protein lobind plate. The supernatant was extracted twice for each well, and the supernatants were combined. • The Plate was placed in TurboVap and the extracted supernatant was dried completely with heated (65° C.) Nitrogen gas at 60 Fahrenheit (Fh). • After the plate was completely dry, the plates were covered and incubated at room temperature for at least 30 minutes until the plate returned back to ambient temperature. • 150 μL of Reconstitution solution was added to each well. The plate was covered with a pierceable place seal and shaken at 600 rpm for 10 minutes. • The samples were submitted to the LC-MS/MS on the same day of Preparation
Quantification of the data obtained using the high resolution SCIEX 6600 instrument was then performed as follows: • For the quantification, extracted ion chromatograms (XIC) using 0.2 Da m/z extraction window centered on the accurate mass of each fragment ion were generated. Accurate mass was calculated from the structure of the compound. […] Concentrations of the target analyte in unknown samples were obtained by regression analysis using linear fits of peak areas vs. analyte concentration, weighted 1/(concentration). • The quality of the assay was controlled by the quality control samples. • Either Experiment 1 or Experiment 2 could be used for the quantification of the GLP-1 peptide analogs in high resolution mode.
MEDI7219 (SEQ ID NO:2) formulations were studied in the following canine study, which was designed to compare different tablet delivery systems and peptides in enterically coated tablet formulation compositions delivered orally. […]
The efficacy of sodium caprate as a permeation enhancer was also evaluated.

[5] = test system: Gastrointestinal (GI) tract tissues; assay: Microscopic evaluation of gastrointestinal tract tissues after intraduodenal dosing (Example 4); assay type: in vivo; conditions: rat, following administration of 50 mg/kg sodium caprate
[6] = canine, Intravenous, 0.031 mg/kg, 0.031 mg/mL peptide in Tris Mannitol, pH 8.0
[7] = canine, Oral IntelliCap released in proximal colon, 0.96 mg/kg, 10 mg peptide, 100 mg Na CDC, 50 mg PG tablet
[8] = canine, Oral, 0.54 mg/kg, 5 mg peptide, 100 mg Na CDC, 50 mg PG tablet in Acid-resistant capsule
[9] = canine, Oral, 1.08 mg/kg, 10 mg peptide, 100 mg Na CDC, 50 mg PG tablet in Acid-resistant capsule

half-life [1]: 9 h
bioavailability ([1]; 1 mg/kg): 1.2%
AUC ([1]; iv, 0.01 mg/kg): 1080 ng·h/mL
Cmax ([1]; iv, 0.01 mg/kg): 211 ng/mL
F ([1]; iv, 0.01 mg/kg): 100%
half-life ([1]; iv, 0.01 mg/kg): 9.2 h
Permeability (%) ([2]; 5.0 mg/mL Sodium Chenodeoxycholate): 1.21%
Permeability (%) ([2]; 25 mg/mL Sodium Chenodeoxycholate): 13.3%
Tmax ([3]; po, […]): 0.857 h
half-life ([3]; po, […]): 6.76 h
AUC(0-t) [3, 6]: 147 ± 19.9 ng·h/mL
Cmax [3, 6]: 27.3 ng/mL
Tmax [3, 6]: 0.444 h
half-life [3, 6]: 7.21 h
AUC(0-t) [3, 7]: 1490 ng·h/mL
Cmax [3, 7]: 210 ng/mL
Tmax [3, 7]: 2.14 h
half-life [3, 7]: 5.37 h
AUC(0-t) [3, 8]: 325 ± 467 ng·h/mL
Cmax [3, 8]: 47.3 ng/mL
Tmax [3, 8]: 1.64 h
half-life [3, 8]: 6.99 h
AUC(0-t) [3, 9]: 1970 ng·h/mL
Cmax [3, 9]: 279 ng/mL
Tmax [3, 9]: 1.79 h
half-life [3, 9]: 6.31 h
bioavailability ([3]; po, […]): 2.46%
bioavailability [3, 7]: 2.79%
bioavailability [3, 8]: 1.3%
bioavailability [3, 9]: 3.63%
SMILES: CCCCCCCCCCCC(=O)N[C@@H](CCC(=O)NCCOCCOCC(=O)NCCOCCOCC(=O)NCCCC[C@H](NC(=O)[C@H](C)NC(=O)[C@@H](NC(=O)[C@H](Cc1ccccc1)NC(=O)[C@H](CCC(=O)O)NC(=O)C(C)(CCCCN)NC(=O)[C@H](C)NC(=O)[C@H](C)NC(=O)[C@H](CCC(=O)O)NC(=O)CNC(=O)[C@H](CCC(=O)O)NC(=O)[C@H](CC(C)C)NC(=O)[C@H](CCCCNC(=O)COCCOCCNC(=O)COCCOCCNC(=O)CC[C@H](NC(=O)CCCCCCCCCCC)C(=O)O)NC(=O)[C@H](CO)NC(=O)C(C)(CO)NC(=O)[C@@H](NC(=O)[C@H](CC(=O)O)NC(=O)[C@H](CO)NC(=O)[C@@H](NC(=O)C(C)(Cc1ccccc1)NC(=O)[C@H](CO)NC(=O)CNC(=O)[C@H](CCC(=O)O)NC(=O)C(C)(C)NC(=O)[C@@H](N)Cc1c[nH]cn1)[C@@H](C)O)C(C)C)[C@@H](C)CC)C(=O)N[C@H](C(=O)N[C@H](C(=O)N[C@@H](CCC(=O)O)C(=O)NCC(=O)NCC(N)=O)C(C)C)C(C)C)C(=O)O (some centres unmarked) [SEQ ID NO: 6, Free-H-[AIB]-EGS-[αMePhe]-TSDV-[αMeSer]-SK[(PEG2)2-γE-Lauroyl]-LEGEAA-[αMeLys]-EFIAK[(PEG2)2-γE-Lauroyl]-VVEGG-amide] (H-H[Aib]EGS[ξαMeF]TSDV[ξαMeS]SK([AEEA-AEEA-γGlu-Lauroyl])LEGEAA[ξαMeK]EFIAK([AEEA-AEEA-γGlu-Lauroyl])VVEGG-NH2)
F [1]: significantly higher absolute bioavailability via ID route than semaglutide

AUC [4]: 23700 ng·h/mL
PK variability [4]: 52.3%
half-life [4]: 33 h
SMILES: CCCCCCCCCCCCCCCC(=O)N[C@@H](CCC(=O)NCCOCCOCC(=O)NCCOCCOCC(=O)NCCCC[C@H](NC(=O)[C@H](C)NC(=O)[C@@H](NC(=O)C(C)(Cc1ccccc1)NC(=O)[C@H](CCC(=O)O)NC(=O)C(C)(CCCCN)NC(=O)[C@H](C)NC(=O)[C@H](C)NC(=O)[C@H](CCC(=O)O)NC(=O)CNC(=O)[C@H](CCC(=O)O)NC(=O)[C@H](CC(C)C)NC(=O)[C@H](CCCCNC(=O)COCCOCCNC(=O)COCCOCCNC(=O)CC[C@H](NC(=O)CCCCCCCCCCCCCCC)C(=O)O)NC(=O)[C@H](CO)NC(=O)C(C)(CO)NC(=O)[C@@H](NC(=O)[C@H](CC(=O)O)NC(=O)[C@H](CO)NC(=O)[C@@H](NC(=O)C(C)(Cc1ccccc1)NC(=O)[C@H](CO)NC(=O)CNC(=O)[C@H](CCC(=O)O)NC(=O)C(C)(C)NC(=O)[C@@H](N)Cc1c[nH]cn1)[C@@H](C)O)C(C)C)[C@@H](C)CC)C(=O)N[C@H](C(=O)N[C@H](C(=O)N[C@@H](CCC(=O)O)C(=O)NCC(=O)NCC(N)=O)C(C)C)C(C)C)C(=O)O (some centres unmarked) [SEQ ID NO: 10, Free-H-[AIB]-EGS-[αMePhe]-TSDV-[αMeSer]-SK[(PEG2)2-γE-Palmitoyl]-LEGEAA-[αMeLys]-E-[αMePhe]-IAK[(PEG2)2-γE-Palmitoyl]-VVEGG-amide] (H-H[Aib]EGS[ξαMeF]TSDV[ξαMeS]SK([AEEA-AEEA-γGlu-Palmitoyl])LEGEAA[ξαMeK]E[ξαMeF]IAK([AEEA-AEEA-γGlu-Palmitoyl])VVEGG-NH2)

SMILES: CCCCCCCCCC(=O)[O-].[Na+] [sodium caprate]
Gastrointestinal (GI) tract tissues upon microscopic evaluation [5]: looked normal
